From patent publication US20260000655A1, “PHARMACEUTICAL COMPOSITION FOR USE IN PREVENTION OR TREATMENT OF LIFESTYLE-RELATED DISEASE” (priority 2022, published 2026)

Assays:
[1] = system: myotube cell model L6-GLUT4myc, liver cell model HepG2 cells, adipocyte model 3T3-L1; assay: Production of lactic acid in cells; assay type: cell-based, rat, human, mouse; conditions: HPH-15 10 μM or 50 μM vs metformin 2 mM; 24 hours
Description: There is a concern that a therapeutic drug of diabetes may cause lactic acidosis due to the production of lactic acid, requiring caution, especially for patients with chronic renal failure or the elderly. Therefore, the production of lactic acid when HPH-15 was used was examined.
The myotube cell model L6-GLUT4myc, the liver cell model HepG2 cells, and the adipocyte model 3T3-L1 used in Example 1 were each seeded onto a 24-well plate (1×10^5 cells/well, […] of culture liquid) and cultured overnight. Then, a DMSO solution (1%) containing HPH-15 (final concentration: 10 μM or 50 μM) or metformin (final concentration: 2 mM) was added to the medium, and the cells were further cultured for 24 hours. As a control, only DMSO solution (1%) was added, and the cells were cultured for 24 hours in the same manner. Next, the amount of lactic acid accumulated in the cells was measured using the Lactate Assay Kit-WST (Dojindo Laboratories).

[2] = system: high-fat diet-induced obesity model mice; assay: Sirius Red staining and collagen amount in mouse tissue; assay type: in vivo; conditions: HPH-15 10 mg/kg or 100 mg/kg, metformin 300 mg/kg, orally 28 days, Western blotting
Description: High-fat diet-induced obesity model mice were prepared in the same manner as in Example 7. Then, HPH-15 (10 mg/kg or 100 mg/kg, […]) dissolved in olive oil or metformin (300 mg/kg, […]) was orally administered once a day for 28 days. Olive oil alone was administered as a control. After 28 days of administration of each, the liver and the epididymal fat of the high-fat diet-induced obesity model mice were stained with Sirius Red and observed using a microscope.
Further, high-fat diet-induced obesity model mice were prepared in the same manner as in Example 7. Then, HPH-15 (10 mg/kg or 100 mg/kg, […]) dissolved in olive oil or metformin (300 mg/kg, […]) was orally administered once a day for 28 days. Olive oil alone was administered as a control. After 28 days of administration of each, equal amounts (50 mg) of tissue pieces were collected from the liver and epididymal adipose tissues of the high-fat diet-induced obesity model mice, transferred to 1.5 mL Eppendorf tubes, and washed twice with PBS. After washing, the tissue pieces were transferred to BIOMASHER II, […] of RIPA buffer was added, and the tissue pieces were homogenized on ice. After homogenization, the tissue pieces were centrifuged (10,000 rpm, 4° C., 5 min) and the supernatant was obtained as a protein solution. The concentration of the proteins thus obtained was corrected based on the protein concentration measured by the BCA method using bicinchoninic acid (BCA), thereby preparing samples for Western blotting. Western blotting was quantified using ImageJ to calculate the amount of collagen.

[3] = system: Smad 3; conditions: Non-Patent Literature 3; cited from earlier work

## CC(C)(C)SCCNC(=S)c1cccc(C(=S)NCCSC(C)(C)C)n1 [HPH-15]
[1]
  production of lactic acid: equal to or less than that by metformin
[2]
  amount of collagen in the epididymal adipose tissue: strongly reduced
  amount of collagen in the liver tissue: strongly reduced
[3]
  phosphorylation of Smad 3 induced by TGF-β: reduces the phosphorylation of Smad 3 induced by TGF-β
